Measurements from patent US8840898B2, “Immunoconjugates targeting syndecan-1 expressing cells and use thereof” (priority 2004, dated 2014).

Assays:
[1] = cited from earlier work
[2] = test system: CD138- cell lines SUDHL4 and WSU-WM; test: Colorimetric survival assay (MTT), CD138- cells; format: cell-based, human; conditions: 1-50 nM or equimolar concentrations, up to 96 h
Method: (§1) Survival of CD138^+ and CD138^− cells upon administration of B-B4-DM1, B-B4 and DM1 was examined using a tetrazolium colorimetric assay (CellTiter 96® Non-Radioactive Cell Proliferation Assay; Promega, Wis.), as previously described (Mossmann, 1983). Cells (1×10^4) were plated in 24-well plates in 1 ml RPMI complete medium and then treated as indicated. At the end of each treatment, cells were incubated with 150 μl of Dye Solution and then incubated for 4 h at 37° C. A solubilization/stop solution was then added to each well under vigorous pipetting to dissolve the formazan crystals. Absorbance was measured at 570 nm, and cell viability was estimated as percentage of untreated controls. All experiments were repeated 3 times, and each experimental condition was repeated in triplicate wells in each experiment. Data reported are average values±SD of 3 representative experiments.
(§2) The effects of B-B4-DM1 on survival of CD138^+ (MM-1S, MM-1R, Ocy-My5) and CD138^− cells (SUDHL-4 and WSU-WM) were determined using an MTT assay. […] Cell survival was measured using an MTT assay. […] CD138^+ MM cell lines MM-1S, MM-1R and Ocy-My5 were evaluated as well as CD138^− cell lines including the lymphoma cell line SUDHL4 and the Waldestrom's Macroglobulinemia cell line WSU-WM.

[3] = test system: CD138+ MM cell lines MM-1S, MM-1R and Ocy-My5; test: Colorimetric survival assay (MTT), CD138+ cells; format: cell-based, human; conditions: 1-50 nM or equimolar concentrations, up to 96 h
Method: as §1, §2

[4] = test system: CD138+ Ocy-My5 MM cells; test: Detection of apoptosis (Annexin V / PI); format: cell-based, human; conditions: 10 nM, 48 h exposure
Method: Dual staining with FITC-labeled Annexin V and propidium iodide (PI) was carried out to detect induction of apoptotic cell death by B-B4-DM1. After treatment of 1×10^6 tumor cells for 48 h, cells were washed with PBS and re-suspended in 100 µl of HEPES buffer containing Annexin V-FITC and propidium iodide (PI) (Annexin V-FLUOS staining kit; Roche Diagnostic, Indianapolis, Ind.). Following 15 min incubation at room temperature, cells were analyzed using a Coulter Epics XL flow cytometer for the presence of an Annexin V-FITC-positive/PI-negative apoptotic cell population.
[…] Apoptotic cell death was then measured by staining with annexin V and PI and flow cytometric analysis.
Percentages of stained cells are reported in each quadrant. […] Ocy-My5 MM cells were exposed to B-B4 mAb (13.3 μg/ml) or B-B4-DM1 (10 nM) for 48 h, labeled with PI, and analyzed using flow cytometry. Percentages of cells in the S-phase (S) and G2/M phase (G2) are indicated.

[5] = test system: CD138- SUDHL-4 cells adherent to BMSC; test: Cell proliferation assay ([3H]-thymidine) on cells adherent to BMSC, SUDHL-4; format: cell-based, human; conditions: SUDHL-4 on BMSC; 10 nM; 72 h treatment
Method: (§3) The effect of B-B4-DM1 on cell proliferation was measured by the extent of [^3H]-thymidine (NEN Life Science Products, Boston, Mass.) incorporation. Cells (2×10^4 cells/well) were incubated in 96-well culture plates in the presence of 70%-80% confluent BMSCs at 37° C. with or without a test-agent (in triplicate wells). [^3H]-thymidine (0.5 μCi) was then added to each well for the last 8 h. Cells were harvested onto glass filters with an automatic cell harvester (Cambridge Technology, Cambridge, Mass.) and counted using a Micro-Beta® Trilux counter (Wallac, Gaithersburgh, Md.).
(§4) Since adhesion of MM cells to BMSC (bone marrow stromal cells) protects MM cells against drug-induced apoptosis, the effect of B-B4-DM1 on proliferation of CD138^+ (Ocy-My5) MM and CD138^− (SUDHL-4) LB cells adherent to BMSC was evaluated.
(§5) Ocy-My5 (FIG. 3A) or SUDHL-4 (FIG. 3B) cells (2×10^4) were seeded on 70%-80% confluent BMSC for 24 h. Cell proliferation was measured by [^3H]thymidine incorporation following 72 h treatment with B-B4-DM1 (10 nM). Values represent the mean [^3H]-TdR incorporation (cpm) of triplicate cultures.

[6] = test system: CD138+ Ocy-My5 MM cells adherent to BMSC; test: Cell proliferation assay ([3H]-thymidine) on cells adherent to BMSC, Ocy-My5; format: cell-based, human; conditions: 10 nM, 72 h treatment
Method: as §3, §4, §5

[7] = cited from earlier work; remark: listed apart in the source

Row | SMILES | Cytotoxicity relative to maytansine ([1]; more cytotoxic) | Cell survival / growth (MTT assay) [2] | Cell survival / growth (MTT assay) [3] | annexin V+/PI- and annexin V+/PI+ fractions (apoptotic cell death) [4] | Cell proliferation ([3H]thymidine incorporation) [5] | Cell proliferation ([3H]thymidine incorporation) [6] | Cytotoxicity relative to anti-cancer drugs in clinical use that affect tubulin polymerization (Vinca alkaloids, taxol) ([1]; higher) | Adverse effects in clinical trials [7]
1 | COc1cc2cc(c1Cl)N(C)C(=O)C[C@H](OC(=O)[C@H](C)N(C)C(=O)CCS)[C@]1(C)O[C@H]1[C@H](C)[C@@H]1C[C@@](O)(NC(=O)O1)[C@H](OC)/C=C/C=C(\C)C2 [DM1, N^2-deacetyl-N^2-(3-mercapto-1-oxopropyl)-maytansine] | 3- to 10 fold | equally and highly cytotoxic | equally and highly cytotoxic | significant increase | cytotoxic to both cell lines | cytotoxic to both cell lines | – | –
2 | COc1cc2cc(c1Cl)N(C)C(=O)C[C@H](OC(=O)[C@H](C)N(C)C(C)=O)[C@]1(C)O[C@H]1[C@H](C)[C@@H]1C[C@@](O)(NC(=O)O1)[C@H](OC)/C=C/C=C(\C)C2 [maytansine] | – | – | – | – | – | – | 200-1000 fold | serious adverse effects on the central nervous system and gastrointestinal system
